Assay results from patent US8962322B2, “Enhancers of induced pluripotent stem cell reprogramming” (City of Hope, priority 2012, dated 2015).
Where two headings read alike, the source gives them in different places.

Legend:
endogenous Nanog = experiment: RT-PCR of endogenous Nanog mRNA in treated MEFs; assay type: cell-based, mouse; conditions: versus vehicle
Procedure: MEFs were treated with vehicle control or OAC 1 to test whether OAC 1 activates endogenous Oct4 and Nanog gene transcription. […] Oct4, Sox2, and Nanog are central to the transcriptional regulatory hierarchy for ESC pluripotency, forming the core transcriptional regulatory circuitry in ESCs (37). […] OAC1 activated Sox2 mRNA expression, along with Oct4 and Nanog (FIG. 61).
(§1) RT-PCR analysis: Total RNA was purified with Trizol reagent (Invitrogen). Reverse transcription was performed with 1 μg of RNA using Omniscript® Reverse Transcription Kit (Qiagen). Quantitative PCR was performed using iTaq SYBR Green Supermix with Rox (Bio-rad) in Applied Biosystem Step one plus real-time PCR system. […]

human Oct4 promoter = experiment: Oct4-luc luciferase reporter assay (stably transfected CV1 cells); assay type: cell-based; conditions: for fold induction at 1 µM: compound at 1 μM, Oct4-luc cells, triplicates
Source text: A high-throughput screening scheme was designed to identify Oct4 promoter-activating compounds using a luciferase reporter under the control of the human Oct4 promoter (Oct4-luc). […] A stable cell line (Oct4-luc) that expresses luciferase reporter driven by the exogenous Oct4 promoter was established using hygromycin-resistance as a selection marker. These Oct4-luc cells were used for high-throughput screening of a chemical library of 80,000 compounds. The luciferase reporter activity was measured 24 hr after compound treatment. Solvent treatment was included as a negative control.
Then the promoter sequences were cloned into pGL4.4-luc-Hyg vector (Promega) to get Oct4-luc or Nanog-luc construct and the fidelity of the Oct4 and Nanog promoter DNA sequences was confirmed by bi-directional sequencing. CV 1 cells were transfected with the Oct4-luc or Nanog-luc constructs and the stably-transfected cells were selected by hygromycine resistance.
Compound Screening: The Oct4-luc cells were seeded at 1.75×10^4 cells per well density into 96-well plates. Compounds were added to cells one day after cell seeding at the concentration of 10 μM for 24 hr in the High-Throughput Screening core facility at City of Hope. Compounds that induced luciferase activity 3-fold or more were selected for further validation in both Oct4-luc and Nanog-luc cells.
Luciferase Reporter Assays: The Oct4-luc or Nanog-luc cells were treated with compound OAC 1 or its structural analogs at 1 μM concentration or at indicated concentrations in triplicates. Other compounds used include 2 μM BIO, 2 μM BIX, 2 μM
AzaC, 25 μg/ml Vc, 10 nM Am580, 5 μM tranylcypromine, and 0.5 mM VPA. Luciferase reporter assays were performed as described (51) 24 hr after compound treatment or at indicated time points. For Topflash reporter assays, 0.2 μg β-catenin-responsive Topflash reporter gene plasmid was introduced into CV1 cells using trasfection (Bio-Rad). Compounds were added 6 hr after transfection. Luciferase activity was measured 48 hr after compound treatment using the Glo Luciferase Assay System (Promega).

p53 = experiment: RT-PCR of p53 expression in treated MEFs; assay type: cell-based, mouse; conditions: MEFs treated for two days
Procedure: Inhibition of the p53-p21 signaling increased reprogramming efficiency (26, 28-31, 41). To investigate whether compound OAC1 enhanced reprogramming efficiency by affecting this pathway, MEFs were treated with vehicle control or OAC1 and determined the expression level of p53 and p21 in the treated cells.
as §1

luciferase = luciferase (Photinus pyralis, UniProt P08659); conditions: cited from earlier work
Chain of luciferase (P08659 whole entry): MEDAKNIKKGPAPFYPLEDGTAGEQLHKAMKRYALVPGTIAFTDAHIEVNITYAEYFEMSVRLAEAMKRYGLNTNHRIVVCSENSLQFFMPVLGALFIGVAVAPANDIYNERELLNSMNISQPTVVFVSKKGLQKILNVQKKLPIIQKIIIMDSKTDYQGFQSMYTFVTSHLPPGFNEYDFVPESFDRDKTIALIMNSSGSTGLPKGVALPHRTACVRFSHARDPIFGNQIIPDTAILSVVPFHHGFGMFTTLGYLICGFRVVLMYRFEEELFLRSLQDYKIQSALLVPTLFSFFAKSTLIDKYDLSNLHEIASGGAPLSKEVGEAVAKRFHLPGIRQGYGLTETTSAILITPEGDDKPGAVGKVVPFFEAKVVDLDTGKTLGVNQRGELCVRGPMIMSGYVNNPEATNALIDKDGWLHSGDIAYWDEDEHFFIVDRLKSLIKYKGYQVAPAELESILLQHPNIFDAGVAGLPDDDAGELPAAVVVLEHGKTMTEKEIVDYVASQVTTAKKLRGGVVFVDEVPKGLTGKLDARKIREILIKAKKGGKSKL

O=C(Nc1cc2cc[nH]c2cn1)c1ccccc1 [OAC1, N-(1H-6-azaindol-5-yl)benzamide]
endogenous Nanog mRNA expression (endogenous Nanog): activated | activation of Oct4-luc at 50 nM (human Oct4 promoter; 50 nM, two days after compound treatment): activated Oct4-luc considerably | fold induction at 1 µM (human Oct4 promoter; Homo sapiens, CV-1, 24 h, read-out: Oct4-luc Activity): ≥ 1.8 | induction of Oct4-luc, comparison with known reprogramming enhancers (in words) (human Oct4 promoter; OAC1 1 μM, BIO 2 μM, BIX 2 μM, AzaC 2 μM, Vc 25 μg/ml, Am580 10 nM, tranylcypromine 5 μM, VPA 0.5 mM, two days): potent induction | fold induction at 1 µM (human Oct4 promoter; read-out: Oct4-luc fold Induction): 5 | concentration of highest induction of Oct4-luc (human Oct4 promoter; dose response 50 nM to 1 μM, 2 to 7 days): 1 µM | activation of human Oct4 reporter (in words) (human Oct4 promoter; triplicate luciferase reporter assays): considerable activation | p53 expression level versus DMSO (p53): no significant difference | inhibition in ATLAS assay (luciferase): no inhibition
